Experimental data published in publication PMC2365198, “Chemistry and Pharmacokinetics of Gallium Maltolate, a Compound With High Oral Gallium Bioavailability” (Metal-Based Drugs, 2000).
Where “and” joins values, the source holds several entries; their conditions need not be identical. Equal values may be shown once.

How the values were obtained:
[1] = dog, in vivo, 1.5 mg/kg
[2] = Clinical single-dose escalation study, pharmacokinetics of oral gallium maltolate (serum and urine gallium); conditions: human; for FAe: cumulative urinary excretion as fraction of administered dose: 72h; for F (V=29.5 L): from V/F
[3] = human, in vivo, po
[4] = Dog bioavailability study (serum gallium); conditions: healthy young beagle dogs, intraduodenal or oral
healthy human subjects = assay: Clinical single-dose escalation study, safety and tolerability
Solubility in water = format: physicochemical; conditions: 25 C; listed as GaM
[5] = Stability of dilute aqueous solution as a function of pH (absorbance at 303 nm); format: physicochemical
[6] = parameters: method as in earlier work; conditions: human cancer patients, single oral dose 800 mg (317 mg Ga); cited from earlier work
[7] = Pharmacokinetics of single oral dose of gallium chloride in cancer patients (data of Collery et al.); format: in vivo, human; conditions: data of ref 12
[8] = single oral dose 100 mg [15.7 mg Ga]
[9] = single oral dose 200 mg [31.3 mg Ga]
[10] = single oral dose 300 mg [47.0 mg Ga]
[11] = single oral dose 500 mg [78.4 mg Ga]

O=[N+]([O-])[O-].O=[N+]([O-])[O-].O=[N+]([O-])[O-].[Ga+3] [Ga nitrate, gallium nitrate]
Cmax [1]: 0.31 (0.02) lg/mL | K01 half life [1]: 0.8(0.2) h | Tmax [1]: 3.1 (0.4) h | beta half life [1]: 9.9(2.4) h

Cc1occc(=O)c1[O-].Cc1occc(=O)c1[O-].Cc1occc(=O)c1[O-].[Ga+3] [gallium maltolate, tris(3-hydroxy-2-methyl-4H-pyran-4-onato)gallium]
Dose dependence of absorption ([2]; oral, dosage range 100-500 mg): dose proportional | Urinary Ga excretion, of the administered dose ([2]; oral, over 72h): approximately 2% | Ae: cumulative urinary excretion of gallium in 72h [2, 8]: 0.35(0.14) mg | Lag time [2, 8]: 0.32(0.05) h | FAe: cumulative urinary excretion as fraction of administered dose [2, 8]: 0.022(0.001) | F (V=29.5 L) [2, 8]: 0.28 | Ae: cumulative urinary excretion of gallium in 72h [2, 9]: 0.66(0.28) mg | Lag time [2, 9]: 0.42(0.04) h | FAe: cumulative urinary excretion as fraction of administered dose [2, 9]: 0.021(0.001) | F (V=29.5 L) [2, 9]: 0.35 | Ae: cumulative urinary excretion of gallium in 72h [2, 10]: 1.11(0.08) mg | Lag time [2, 10]: 0.24(0.06) h | FAe: cumulative urinary excretion as fraction of administered dose [2, 10]: 0.023(0.000) | F (V=29.5 L) [2, 10]: 0.40 | Ae: cumulative urinary excretion of gallium in 72h [2, 11]: 1.37(0.52) mg | Lag time [2, 11]: 0.20(0.08) h | FAe: cumulative urinary excretion as fraction of administered dose [2, 11]: 0.018(0.001) | F (V=29.5 L) [2, 11]: 0.25 | Central compartment excretion half life ([2]; single oral doses 100-500 mg): 17 to 21 h | Estimated oral gallium bioavailability ([2]; single oral doses 100-500 mg, comparison with published i.v. gallium nitrate data): 25-57% | F, range over doses (from V/F with V 29.5 L) [3]: 0.25-0.40 | Absorption of Ga into blood plasma relative to intraduodenal Ga nitrate [4]: several times higher | Change in renal function (serum creatinine clearance, serum urea, BUN clearance, urinary microglobulin, urinalysis) (healthy human subjects; healthy human subjects, oral): none of the subjects who took oral GaM showed any change in renal function | Serious treatment-related adverse events (healthy human subjects; healthy human subjects, single oral doses 100-500 mg): no reports of serious treatment-related adverse events | Subjects reporting possible drug-related adverse events (healthy human subjects; healthy human subjects, single oral doses 100-500 mg, mild headache (100 mg), moderate coughs (200 mg)): Three of the twelve subjects | Tolerability (healthy human subjects; healthy human volunteers, single oral doses of 100, 200, 300 and 500 mg): very well tolerated | Solubility in water (Solubility in water): 10.7 ± 0.9 mg/mL and 24(2) mM | Dissociation in dilute aqueous solution ([5]; 2.5 x 10^-5 M, pH 5.5-8.0): little dissociation | Gallium maltolate complex undissociated ([5]; dilute aqueous solution (2.5 x 10^-5 M), pH approximately 5.5 to 8): at least 98%

[Cl][Ga]([Cl])[Cl] [GaCI3, gallium chloride]
Estimated V/F [6]: 2862(297) L | Gallium bioavailability using the estimated value for V/F ([7]; human cancer patients, single oral dose 800 mg (317 mg Ga)): approximately 0.010 | Estimated oral bioavailability ([7]; human, oral): ≤ 2%
